Entries after “also recorded” stand apart in the source; their conditions may differ.
Experiments:
[1] = in vivo; cited from earlier work
[2] = water; cited from earlier work
[3] = 200 mg/day orally; cited from earlier work
[4] = system: mast cells and eosinophil
stromelysin (MMP-3) mRNA = assay: IL-1 induced MMP-3 (stromelysin) mRNA expression in chondrocytes, Northern blot
[5] = system: Primary human smooth muscle cells; assay: Smooth muscle cell migration assay (Boyden chamber, rhPDGF-BB chemotaxis); format: cell-based; details: chemotaxis to rhPDGF-BB 10 ng/ml, 4 hours
Procedure: Primary human smooth muscle cells were starved of serum in smooth muscle cell basal media containing insulin and human basic fibroblast growth factor (bFGF) for 16 hours prior to the assay. For the migration assay, cells were trypsinized to remove cells from flasks, washed with migration media and diluted to a concentration of 2-2.5×10^5 cells/ml in migration media. […] A 100 μL volume of smooth muscle cells (approximately 20,000-25,000 cells) was added to the top of a Boyden chamber assembly (Chemicon QCM CHEMOTAXIS 96-well migration plate). To the bottom wells, the chemotacetic agent, recombinant human platelet derived growth factor (rhPDGF-BB) was added at a concentration of 10 ng/ml in a total volume of 150 μL. Paclitaxel was prepared in DMSO at a concentration of 10^−2 M and serially diluted 10-fold to give a range of stock concentrations (10^−8 M to 10^−2 M). […]
At the end of the 4 hour period, cells in the top chamber were discarded and the smooth muscle cells attached to the underside of the filter were detached for 30 minutes at 37° C. in Cell Detachment Solution (Chemicon). […] Relative fluorescence units from triplicate wells were averaged after subtracting background fluorescence (control chamber without chemoattractant) and average number of cells migrating was obtained from a standard curve of smooth muscle cells serially diluted from 25,000 cells/well down to 98 cells/well.

[6] = system: collagenase and stromelysin; assay: IL-1 induced collagenase and stromelysin RNA levels in chondrocytes; format: cell-based; details: pretreatment (FIG. 1D)
AP-1 = assay: IL-1 induced AP-1 binding activity in chondrocyte lysates; format: cell-based; details: lysates from chondrocytes pretreated with the agent (FIG. 1C)
[7] = system: AP-1 DNA binding activity; assay: IL-1 induced AP-1 DNA binding activity, gel mobility shift assay with chondrocyte extracts; format: cell-based; details: chondrocyte lysates, pretreated with paclitaxel 10^−7 to 10^−5 M for 24 hours
Procedure: Binding activity was assayed with a radiolabeled human AP-1 sequence probe and gel mobility shift assay. Extracts from chondrocytes untreated or treated with various amounts of paclitaxel (10^−7 to 10^−5M) followed by IL-1β (20 ng/ml) were incubated with excess probe on ice for 30 minutes, followed by non-denaturing gel electrophoresis. The “com” lane contains excess unlabeled AP-1 oligonucleotide. The results shown are representative of three independent experiments.

[8] = system: Chick Chorioallantoic Membrane (CAM) vasculature; assay: Chick chorioallantoic membrane (CAM) angiogenesis assay; format: in vivo; details: for Inhibition/n: 48 hours exposure
Procedure: Fertilized, domestic chick embryos were incubated for 3 days prior to shell-less culturing. In this procedure, the egg contents were emptied by removing the shell located around the air space. The interior shell membrane was then severed and the opposite end of the shell was perforated to allow the contents of the egg to gently slide out from the blunted end. The egg contents were emptied into round-bottom sterilized glass bowls and covered with petri dish covers. These were then placed into an incubator at 90% relative humidity and 3% CO2 and incubated for 3 days.
Ten microliter aliquots of this solution were dried on parafilm for 1 hour forming disks 2 mm in diameter. The dried disks containing paclitaxel were then carefully placed at the growing edge of each CAM at day 6 of incubation. Controls were obtained by placing paclitaxel-free methylcellulose disks on the CAMs over the same time course. After a 2 day exposure (day 8 of incubation) the vasculature was examined with the aid of a stereomicroscope. Liposyn II, a white opaque solution, was injected into the CAM to increase the visibility of the vascular details. The vasculature of unstained, living embryos were imaged using a Zeiss stereomicroscope which was interfaced with a video camera (Dage-MTI Inc., Michigan City, Ind.). […] Image negatives were then made on a graphics recorder (Model 3000; Matrix Instruments, Orangeburg, N.Y.).
The membranes of the 8 day-old shell-less embryo were flooded with 2% glutaraldehyde in 0.1M sodium cacodylate buffer; additional fixative was injected under the CAM. After 10 minutes in situ, the CAM was removed and placed into fresh fixative for 2 hours at room temperature. The tissue was then washed overnight in cacodylate buffer containing 6% sucrose. The areas of interest were postfixed in 1% osmium tetroxide for 1.5 hours at 4° C. The tissues were then dehydrated in a graded series of ethanols, solvent exchanged with propylene oxide, and embedded in Spurr resin. Thin sections were cut with a diamond knife, placed on copper grids, stained, and examined in a Joel 1200EX electron microscope. Similarly, […] sections were cut and stained with […] for light microscopy.
At day 11 of development, chick embryos were used for the corrosion casting technique. Mercox resin (Ted Pella, Inc., Redding, Calif.) was injected into the CAM vasculature using a 30-gauge hypodermic needle. […] After injection, the plastic was allowed to sit in situ for an hour at room temperature and then overnight in an oven at 65° C. The CAM was then placed in 50% aqueous solution of sodium hydroxide to digest all organic components.
This imaging setup was used at a magnification of 160× which permitted the direct visualization of blood cells within the capillaries; thereby blood flow in areas of interest may be easily assessed and recorded. For this study, the inhibition of angiogenesis was defined as an area of the CAM (measuring 2-6 mm in diameter) lacking a capillary network and vascular blood flow. Throughout the experiments, avascular zones were assessed on a 4 point avascular gradient (Table 11). This scale represents the degree of overall inhibition with maximal inhibition represented as a 3 on the avascular gradient scale.

collagenase (MMP-1) mRNA = assay: IL-1 induced MMP-1 (collagenase) mRNA expression in chondrocytes, Northern blot
[9] = system: AP-1 transcriptional activity; assay: IL-1 stimulated AP-1 transcriptional activity (AP-1 driven CAT reporter gene) in transfected chondrocytes; format: cell-based; details: IL-1 50 ng/ml, 24 hours, paclitaxel 10^−7 to 10^−5 M
Text: The results shown are representative of three independent experiments.

[10] = 10^−5 M paclitaxel, 24 hours pretreatment
[11] = chondrocytes pretreated with paclitaxel for 24 hours
[12] = within 48 hours, depending on concentration

## CN(C)/N=N/c1[nH]cnc1C(N)=O [Dacarbazine, dacarbazine]
[1]
  absorption from the GI tract: poorly absorbed

## CC(=O)N1CCN(c2ccc(OCC3COC(Cn4ccnc4)(c4ccc(Cl)cc4Cl)O3)cc2)CC1 (stereo not drawn) [ketoconazole]
[2]
  solubility in water: essentially insoluble in water
[3]
  serum concentration: about 3.2 micrograms

## CCOC(=O)N1CCC(=C2c3ccc(Cl)cc3CCc3cccnc32)CC1 [loratadine]
[4]
  effect on mast cells and eosinophil activation: inhibits

## CC(=O)O[C@H]1C(=O)[C@@]2(C)[C@H]([C@H](OC(=O)c3ccccc3)[C@]3(O)C[C@H](OC(=O)[C@H](O)[C@@H](NC(=O)c4ccccc4)c4ccccc4)C(C)=C1C3(C)C)[C@]1(OC(C)=O)CO[C@@H]1C[C@@H]2O [paclitaxel]
Stromelysin (MMP-3) mRNA; [10]
  inhibition of stromelysin mRNA expression: complete inhibition
Stromelysin (MMP-3) mRNA; [11]
  stromelysin mRNA levels, IL-1 induced: significantly reduced
Stromelysin (MMP-3) mRNA; chondrocytes, IL-1 induced
  concentration inhibiting stromelysin expression in vitro: 10^−6 M
[5]
  IC50: 760 pM
[6]
  IL-1 induction of collagenase and stromelysin RNA levels: inhibited
AP-1
  IL-1 induced binding activity: decreased
[7]
  IL-1 induced AP-1 binding activity to oligonucleotides: decreased
[8]; 0.25 ug in methylcellulose (10 ul) disk
  Inhibition/n: 2/11
[8]; 0.5 ug in methylcellulose (10 ul) disk
  Inhibition/n: 6/11
[8]; 1 ug in methylcellulose (10 ul) disk
  Inhibition/n: 6/15
[8]; 5 ug in methylcellulose (10 ul) disk
  Inhibition/n: 20/27
[8]; 10 ug in methylcellulose (10 ul) disk
  Inhibition/n: 16/21
[8]; 30 ug in methylcellulose (10 ul) disk
  Inhibition/n: 31/31
[8]; 48 hours after application to the CAM
  angiogenesis in the CAM: inhibited
[8]; [12]
  avascular gradient scale, maximal avascular zone: 3
  maximal avascular zone diameter: 6 mm
Collagenase (MMP-1) mRNA; [10]
  inhibition of collagenase mRNA expression: complete inhibition
Collagenase (MMP-1) mRNA; [11]
  collagenase mRNA levels, IL-1 induced: significantly reduced
Collagenase (MMP-1) mRNA; chondrocytes, IL-1 induced
  concentration inhibiting collagenase expression in vitro: 10^−6 M
[9]
  IL-1 induced AP-1 reporter gene CAT activity: decreased CAT activity in a concentration dependent manner; also recorded: reduced IL-1 induced AP-1 reporter gene CAT activity

Reference: US20070197957A1, “Implantable sensors, implantable pumps and anti-scarring drug combinations” (priority 2005, published 2007)
